test system: Plasmodium berghei; experiment: Antimalarial activity against Plasmodium berghei; type: functional

| Structure (SMILES) | log(1/C) |
| --- | --- |
| C=C[C@H]1CN2CC[C@H]1C[C@H]2[C@H](O)c1ccnc2ccc(OC)cc12.O=C(O)c1ccccc1 | 1.98 |
| CCCCN(CCCC)CCC(O)c1cc2ccc(C(F)(F)F)cc2c2cc(C(F)(F)F)ccc12 (centres undefined) | 4.03 |
| CCCCN(CCCC)CC(O)c1cc2cc(Cl)cc(Cl)c2c2cc(C(F)(F)F)ccc12 (centres undefined) | 3.74 |
| CCCCCCN(CCCCCC)CC(O)c1cc(-c2ccc(OC)cc2)nc2cc(Cl)c(OC)cc12 (centres undefined) | 3.38 |
| OC(CC1CCCCN1)c1cc2cc(Cl)ccc2c2cc(Cl)ccc12 (centres undefined) | 4.12 |
| CCCCN(CCCC)CC(O)c1cc(/C=C/c2ccc(C(F)(F)F)cc2)nc(/C=C/c2ccc(C(F)(F)F)cc2)c1 (centres undefined) | 3.82 |
| OC(CC1CCCCN1)c1cc2cc(C(F)(F)F)cc(C(F)(F)F)c2c2cc(Cl)c(Cl)cc12 (centres undefined) | 4.47 |
| CCCCN(CCCC)CC(O)c1cc(Cl)nc2ccccc12 (centres undefined) | 2.14 |
| CCN(CC)CC(O)c1cc(-c2ccc(Cl)c(Cl)c2)nc(-c2ccc(Cl)c(Cl)c2)c1 (centres undefined) | 3.04 |
| CCCCCCN(CCCCCC)CC(O)c1cc(-c2ccc(Cl)cc2)nc2c(Cl)cc(Cl)cc12 (centres undefined) | 3.37 |
| CCCCCCCN(CCCCCCC)CC(O)c1cc2cc(Cl)cc(Cl)c2nc1-c1ccc(Cl)cc1 (centres undefined) | 2.43 |
| OC(CN1CCOCC1)c1cc(-c2ccccc2)nc2c(Cl)cc(Cl)cc12 (centres undefined) | 2.23 |
| CCCCCCCN(CCCCCCC)CC(O)c1cc2cc(Cl)ccc2c2cc(C(F)(F)F)ccc12 (centres undefined) | 3.68 |
| CCCCN(CCCC)CC(O)c1cc2cc(SC)ccc2c2cc(Cl)c(Cl)cc12 (centres undefined) | 3.74 |
| CCCCN(CCCC)CC(O)c1cc(-c2ccc(C(F)(F)F)cc2)nc(C(F)(F)F)c1 (centres undefined) | 4.13 |
| CN1CCCCC1CC(O)c1cc2ccccc2c2cc(Br)ccc12 (centres undefined) | 3.44 |
| OC(CC1CCCCN1)c1ccnc2cc(Cl)ccc12 (centres undefined) | 2.14 |
| CCCCCN(CCCCC)CC(O)c1cc(-c2ccc(C(F)(F)F)cc2)nc(-c2ccc(C(F)(F)F)cc2)c1 (centres undefined) | 3.97 |
| CCCCN(CCCC)CC(O)c1cc2c(Cl)cc(Cl)cc2c2cc(Cl)ccc12 (centres undefined) | 3.72 |
| CCCCN(CCCC)CC(O)c1cc(-c2cccs2)nc2cccc(Br)c12 (centres undefined) | 3.06 |
| CCCCCCCN(CCCCCCC)CC(O)c1cc2ccc(Cl)cc2c2cc(Cl)ccc12 (centres undefined) | 3.12 |
| CC(C)CCCN(CCC(C)C)CC(O)c1cc(-c2ccc(C(F)(F)F)cc2)nc(C(F)(F)F)c1 (centres undefined) | 3.04 |
| OC(CCC1CCCCN1)c1cc2ccc(Cl)cc2c2cc(Cl)ccc12 (centres undefined) | 3.89 |
| OC(CC1CCCCN1)c1cc(-c2ccccc2)nc2cc(Cl)ccc12 (centres undefined) | 2.72 |
| CCCCN(CCCC)CC(O)c1cc(-c2ccc(C(F)(F)F)cc2)nc2c(Cl)cc(Cl)cc12 (centres undefined) | 4.04 |

| Structure (SMILES) | log(1/C) |
| --- | --- |
| CCCCCCN(CCCCCC)CC(O)c1cccc2ccc3cccc(Br)c3c12 (centres undefined) | 2.39 |
| CCCCCCCCN(CCCCCCCC)CC(O)c1cc2ccccc2c2ccccc12 (centres undefined) | 2.54 |
| CCCCN(CCCC)CC(O)c1cc(-c2ccc(F)cc2)nc2c(Cl)cc(Cl)cc12 (centres undefined) | 3.98 |
| CCCCN(CCCC)CC(O)c1cc(Oc2ccc(Cl)cc2)cc2c(Cl)cc(Cl)cc12 (centres undefined) | 2.57 |
| CCCC(CCC)NCC(O)c1cc2ccc(C(F)(F)F)cc2c2cc(C(F)(F)F)ccc12 (centres undefined) | 4.33 |
| CCCCN(CCCC)CC(O)c1cc2ccc(C(F)(F)F)cc2c2ccsc12 (centres undefined) | 2.81 |
| CCCCN(CCCC)CC(O)c1cc2cnccc2c2c(Cl)cc(Cl)cc12 (centres undefined) | 2.42 |
| Cc1cccc2c(C(O)CC3CCCCN3)cc(C(F)(F)F)nc12 (centres undefined) | 2.93 |
| CCCCCCCN(CCCCCCC)CC(O)c1cccc2c1cc(Cl)c1ccccc12 (centres undefined) | 2.5 |
| COc1cc2c(C(O)CC3CCCCN3)cc(-c3ccc(Cl)c(Cl)c3)cc2cc1Cl (centres undefined) | 3.14 |
| CCCCN(CCCC)CC(O)c1cc(-c2ccc(Cl)cc2)nc(-c2ccc(OC)cc2)c1 (centres undefined) | 2.84 |
| CCCCN(CCCC)CC(O)c1cc(Cl)cc2ccc(-c3ccc(Cl)cc3)nc12 (centres undefined) | 2.9 |
| CCCCN(CCCC)CC(O)c1cc2sccc2c2ccsc12 (centres undefined) | 2.1 |
| CCCCN(CCCC)CC(O)c1cccc2c1ccc1cc(Cl)c(Cl)cc12 (centres undefined) | 2.96 |
| CCCCN(CCCC)CC(O)c1cccc2ccc3ccccc3c12 (centres undefined) | 2.09 |
| CCCCN(CCCC)CC(O)c1cc(Cl)cc2cc3ccccc3cc12 (centres undefined) | 2.72 |
| CN(C)CC(O)c1cc2cc(C(F)(F)F)cc(C(F)(F)F)c2c2ccccc12 (centres undefined) | 3.94 |
| CCCCCCCN(CCCCCCC)CC(O)c1cc2sccc2c2cc(Cl)sc12 (centres undefined) | 2.64 |
| CCCC(C)NCC(O)c1cc(-c2ccc(C(F)(F)F)cc2)nc(-c2ccc(C(F)(F)F)cc2)c1 (centres undefined) | 4.44 |
| OC(CC1CCCCN1)c1cc2cc(Cl)ccc2c2ccccc12 (centres undefined) | 2.56 |
| CCCCN(CCCC)CC(O)c1c(Cl)cc(Cl)c2nc(-c3ccc(Cl)cc3)ccc12 (centres undefined) | 3.6 |
| Cc1cccc2c(C(O)CC3CCCCN3)cc(-c3ccc(F)cc3)nc12 (centres undefined) | 3.72 |
| CCCCN(CCCC)CC(O)c1cc(-c2ccc(Cl)cc2)nc(-c2ccc(Cl)cc2)c1 (centres undefined) | 3.84 |
| CCCCN(CCCC)CC(O)c1cc2cc(Cl)cc(Cl)c2c2cc(Cl)ccc12 (centres undefined) | 4.21 |
| CCCCN(CCCC)CC(O)c1cc(-c2ccc(Cl)cc2)nc2c(C(F)(F)F)cc(Cl)cc12 (centres undefined) | 4.61 |

| Structure (SMILES) | log(1/C) |
| --- | --- |
| CCCCN(CCCC)CC(O)c1cc(/C=C/c2ccc(Cl)cc2)nc(/C=C/c2ccc(Cl)cc2)c1 (centres undefined) | 4.18 |
| OC(CC1CCCCN1)c1cc2ccc(C(F)(F)F)cc2c2ccccc12 (centres undefined) | 3.43 |
| CN1CCN(CC(O)c2cc(-c3ccc(Cl)cc3)nc3cc(Cl)ccc23)CC1 (centres undefined) | 2.66 |
| CCCN(CCC)CC(O)c1cc2ccc(C(F)(F)F)cc2c2cc(C(F)(F)F)ccc12 (centres undefined) | 3.92 |
| CCCCN(CCCC)CC(O)c1cc2ccccc2c2ccc(Cl)cc12 (centres undefined) | 2.51 |
| CCCCN(CCCC)CC(O)c1cc2c(Br)cccc2c2cc(Br)ccc12 (centres undefined) | 2.9 |
| CCCCCCCN(CCCCCCC)CC(O)c1cccc2ccc3ccccc3c12 (centres undefined) | 2.19 |
| CCCCCCCN(CCCCCCC)CC(O)c1cc2c(Br)cccc2c2cc(C(F)(F)F)ccc12 (centres undefined) | 3.43 |
| CCOCCN(CCOCC)CC(O)c1cc(-c2ccc(Cl)c(Cl)c2)nc2ccc(OC)cc12 (centres undefined) | 2.83 |
| CCCCCCCN(CCCCCCC)CC(O)c1cc2ccc(C(F)(F)F)cc2c2ccsc12 (centres undefined) | 2.69 |
| OC(CC1CCCCN1)c1cc(C(F)(F)F)nc2ccc(Cl)cc12 (centres undefined) | 2.53 |
| CCCCN(CCCC)CCC(O)c1cc(-c2ccc(C(F)(F)F)cc2)nc(-c2ccc(C(F)(F)F)cc2)c1 (centres undefined) | 4.57 |
| CCCCN(CCCC)CC(O)c1ccc(Cl)c2cc3cccc(Cl)c3cc12 (centres undefined) | 3.39 |
| CCCCCCCN(CCCCCCC)CC(O)c1cc2ccccc2c2c(Cl)cccc12 (centres undefined) | 3.09 |
| CCCCCCCN(CCCCCCC)CC(O)c1cc2cccc(Cl)c2c2ccccc12 (centres undefined) | 2.82 |
| OC(CC1CCCCN1)c1cc2cc(Br)ccc2c2cc(C(F)(F)F)ccc12 (centres undefined) | 3.96 |
| OC(CNC12CC3CC(CC(C3)C1)C2)c1cc(-c2ccccc2)nc2c(Cl)cc(Cl)cc12 (centres undefined) | 2.36 |
| CCCCN(CCCC)CC(O)c1cc2ccccc2c2cc(Cl)ccc12 (centres undefined) | 2.77 |
| CCCCN(CCCC)CC(O)c1cc(C(F)(F)c2ccccc2)nc2c(Cl)cccc12 (centres undefined) | 2.46 |
| Cc1ccc(-c2cc(C(O)CN3CCCCC3)c3cc(C)ccc3n2)cc1 (centres undefined) | 2.42 |
| CCCCCCCN(CCCCCCC)CC(O)c1ccc(Cl)c2cc3cccc(Cl)c3cc12 (centres undefined) | 3.56 |
| Cc1cc(C)c2nc(-c3ccc(Cl)cc3)cc(C(O)CC3CCCCN3)c2c1 (centres undefined) | 4.04 |
| CCCCCCCN(CCCCCCC)CC(O)c1ccc2cc3ccccc3cc2c1 (centres undefined) | 2.62 |
| CCCCCCCN(CCCCCCC)CC(O)c1cc2ccsc2c2cc(Br)ccc12 (centres undefined) | 2.68 |
| CCCCNCC(O)c1cc2ccc(C(F)(F)F)cc2c2cc(C(F)(F)F)ccc12 (centres undefined) | 4.11 |

| Structure (SMILES) | log(1/C) |
| --- | --- |
| CCCCCCCN(CCCCCCC)CC(O)c1cc2c(Br)cccc2c2cc(Br)ccc12 (centres undefined) | 3.33 |
| CCCCNCC(O)c1cc(/C=C/c2ccc(C(F)(F)F)cc2)nc(-c2ccc(C(F)(F)F)cc2)c1 (centres undefined) | 3.89 |
| CCCCN(CCCC)CC(O)c1cc(-c2ccc(Cl)c(Cl)c2)nc2ccc(OC)cc12 (centres undefined) | 3.33 |
| CCCCN(CCCC)CC(O)c1ccc(-c2ccc(Cl)cc2)c2c(Cl)cc(Cl)cc12 (centres undefined) | 3.33 |
| Cc1ccc(-c2cc(C(O)CC3CCCCN3)c3ccccc3n2)cc1 (centres undefined) | 2.38 |
| CCCN(CCC)CC(O)c1cc(-c2ccc(Cl)cc2)nc(-c2ccc(Cl)cc2)c1 (centres undefined) | 3.3 |
| CCCCN(CCCC)CC(O)c1c2ccccc2cc2ccccc12 (centres undefined) | 2.35 |
| CCCCN(CCCC)CC(O)c1cc2ccc(Br)cc2c2cc(C)sc12 (centres undefined) | 2.44 |
| CCCCCCCN(CCCCCCC)CCC(O)c1cc2ccccc2c2ccccc12 (centres undefined) | 3 |
| CCCNCC(O)c1cc2ccc(C(F)(F)F)cc2c2cc(C(F)(F)F)ccc12 (centres undefined) | 4.48 |
| CCCCCCCN(CCCCCCC)CC(O)c1c(OC)c2cc(Cl)ccc2c2ccc(Cl)cc12 (centres undefined) | 3.34 |
| CCCCNCC(O)c1cc(-c2ccc(Br)cc2)nc(-c2ccc(C(F)(F)F)cc2)c1 (centres undefined) | 3.94 |
| CCCCN(CCCC)CC(O)c1c(C)c(-c2ccc(C)cc2C)nc2c1cc(Cl)c1ccccc12 (centres undefined) | 3.05 |
| FC(F)(F)c1cc(C2CCCCN2)c2ccc3ccccc3c2n1.OC(CC1CCCCN1)c1cc(C(F)(F)F)nc2c1ccc1ccccc12 (centres undefined) | 3.44 |
| CC(C)(C)NCCC(O)c1cc2ccc(C(F)(F)F)cc2c2cc(C(F)(F)F)ccc12 (centres undefined) | 4.73 |
| CCN(CC)CC(O)c1cc(-c2ccc(OC)cc2)nc2cc(Cl)c(OC)cc12 (centres undefined) | 2.92 |
| CCCCN(CCCC)CC(O)c1cc(-c2ccc(Cl)cc2)nc2cc3c(cc12)OCO3 (centres undefined) | 2.99 |
| CCCCCN(CCCCC)CC(O)c1cc2cc(Cl)ccc2c2cc(Cl)ccc12 (centres undefined) | 4.01 |
| CCCN(CCC)CC(O)c1cccc2c1cc(Cl)c1ccccc12 (centres undefined) | 2.02 |
| OC(CNC1CCCCC1)c1cc2ccccc2c2cc(OC(F)(F)F)ccc12 (centres undefined) | 3.34 |
| OC(CNC12CC3CC(CC(C3)C1)C2)c1cc(-c2ccc(Cl)cc2)nc(-c2ccc(Cl)cc2)c1 (centres undefined) | 3.23 |
| CCN(CC)CC(O)c1cc(-c2cccs2)nc2cccc(Br)c12 (centres undefined) | 2.38 |
| OC(CC1CCCCN1)c1ccnc2c(C(F)(F)F)cccc12 (centres undefined) | 2.75 |
| CN1CCN(CC(O)c2cc(-c3ccc(Cl)cc3)nc3c(Cl)cc(Cl)cc23)CC1 (centres undefined) | 3.81 |

— ChEMBL document CHEMBL3227967, “Quantitative structure-activity relationships in 1-aryl-2-(alkylamino)ethanol antimalarials” (J Med Chem, 1979)
